These results are taken from patent US20230165970A1, “COMPOSITIONS AND METHODS FOR THE TREATMENT OF BACTERIAL INFECTIONS” (priority 2017, published 2023).

Molecules are shown by their SMILES. ≈ marks a conversion by molar mass, not a printed value. Read-outs that look alike come from different tables or passages of the source. *1 amine or outer side, *2 acyl side, *3 side chain or, on linkers, in order; H or OH if unused. Where a SMILES comes first, the peptide text is derived from it. Bridges are numbered along the chain shown (N, C = ends). [ ]: non-standard residue; d: D form. The star is where a group is joined. Propargyl(OCH2CH2)4CO = C#CCOCCOCCOCCOCCC(=O)*; X1 = CCCCCC[C@@H](O)[C@H](N[*:1])C(=O)[*:2]; dCha = N[C@H](CC1CCCCC1)C(=O)O; hLeu = CC(C)CC[C@H](N)C(=O)O; X7 = NCCN(NC(=O)[*:2])[*:1]; Dab = NCC[C@H](N)C(=O)O; azaGly = NNC(=O)O Bounds are passed on as bounds.

Broadly, the MIC is the lowest concentration found to suppress growth. Read a high MIC as a need for much substance.

The subject of one test is Kp 6951 (COL^R). Format: cell-based, Klebsiella pneumoniae. How it is done: (§1) Briefly, stock solutions of all antibacterial agents were prepared fresh in appropriate solvents (i.e. PBS, pH 7.4, DMSO, DI, etc.). Stock concentrations for drug conjugates were made at 12.5× the highest final assay concentration. All were serially diluted 2-fold, 8 or 12 times in a 96-well PCR plate (VWR cat. no. 83007-374). Bacterial cell suspensions generated from Mueller-Hinton agar (MHA) plate cultures were prepared in 0.85% saline and adjusted to ˜0.1 OD600 nm. […] For the conjugates, 92 μL of each cell suspension in RPMI B were added in the same 96-well plate assay format. […] Compounds were tested against a 14-strain panel comprised of E. coli (Ec), A. baumannii (Ab), P. aeruginosa (Pa), and K. pneumoniae (Kp) that were obtained from ATCC (Ec 25922, Ec 2489, Ab 19606, Pa 27853, Pa PAO1, Kp 43816, Kp 10031), Centers for Disease Control and Prevention (Ec AR0349), BEI Resources (Ab AB5075), Micromyx LLC (Ab 8990, Kp 6951), and Belgian Coordinated Collections of Microorganisms (Pa LES431) or generated in-house (Ec 25922 64X-1). […] E. coli strain ATCC 25922 and P. aeruginosa strain LES431 were run in the presence and absence of 50% heat-inactivated fetal bovine serum (FBS; Sigma, cat. no. F4135-100 mL). Plates were mixed by shaking then incubated at 35° C. overnight (16-20 h).

A further test relates to Kp 43816. Format: cell-based, Klebsiella pneumoniae. How it is done: as §1
The next test deals with Kp 10031. It counts as cell-based, Klebsiella pneumoniae. How it is done: as §1
The test system of the next test is Ab AB5075. It counts as cell-based, Acinetobacter baumannii. Here is the method: as §1
Another test concerns Ab 8990 (COL^R). Format: cell-based, Acinetobacter baumannii. The following applies: Ab 8990 (COL^R); media CA-MHB. Here is the method: as §1
In another test the test system is Ec AR0349 (mcr-1, COL^R). It counts as cell-based, Escherichia coli. Particulars: media CA-MHB. Here is the method:
(§2) Briefly, stock solutions of all antibacterial agents were prepared fresh in appropriate solvents (i.e. PBS, pH 7.4, DMSO, DI, etc.). Stock concentrations for drug conjugates were made at 12.5× the highest final assay concentration. All were serially diluted 2-fold, 8 or 12 times in a 96-well PCR plate (VWR cat. no. 83007-374). Bacterial cell suspensions generated from Mueller-Hinton agar (MHA) plate cultures were prepared in 0.85% saline and adjusted to ˜0.1 OD600 nm. Next, cell suspensions were diluted 1:200 in RPMI containing 5% Luria Broth (LB) to improve bacterial growth (BD Difco, cat. no. 244620) to a concentration of ˜5×10^5 CFU (colony-forming units)/mL. Due to poor solubility in Mueller-Hinton broth media, drug conjugates were evaluated in RPMI 1640 medium (+) L-glutamine, (+) sodium bicarbonate, pH 7.4 (“RPMI B”; Gibco, cat. no. 11875-085) as has been described as a more physiologically-relevant media for susceptibility testing of antibacterial compounds (1). For the conjugates, 92 μL of each cell suspension in RPMI B were added in the same 96-well plate assay format. […] Compounds were tested against a 14-strain panel comprised of E. coli (Ec), A. baumannii (Ab), P. aeruginosa (Pa), and K. pneumoniae (Kp) that were obtained from ATCC (Ec 25922, Ec 2489, Ab 19606, Pa 27853, Pa PAO1, Kp 43816, Kp 10031), Centers for Disease Control and Prevention (Ec AR0349), BEI Resources (Ab AB5075), Micromyx LLC (Ab 8990, Kp 6951), and Belgian Coordinated Collections of Microorganisms (Pa LES431) or generated in-house (Ec 25922 64X-1). […] E. coli strain ATCC 25922 and P. aeruginosa strain LES431 were run in the presence and absence of 50% heat-inactivated fetal bovine serum (FBS; Sigma, cat. no. F4135-100 mL). Plates were mixed by shaking then incubated at 35° C. overnight (16-20 h).

Another test relates to Ec 25922 64X-1 (COL^R). Format: cell-based, Escherichia coli. Particulars: media CA-MHB. How it is done:
as §2

Test [1] concerns Ab AB58705 (COL^R) IpxD, mut. (no LPS). It counts as cell-based, Acinetobacter baumannii. The following applies: media CA-MHB.
Another test concerns A. baumannii AB5075. It counts as cell-based. Here is the method: (§3) Overnight stationary-phase cultures were centrifuged at 3,500×g for 10 min at room temperature and resuspended in 1×PBS to an optical density at 600 nm (OD600) of 0.4 (1×10^8 colony forming units [CFU]/ml) in RPMI with L-glutamine and phenol red (Life Technologies). Bacteria were diluted 1:25 in RPMI ([…]) and 10 ul added to wells of a non-binding 96-well plate (Corning 3641) containing 80 ul of 50% hirudin anti-coagulated blood (complement active) in RPMI. […] MBC was defined as the minimum conjugate concentration required for bacterial clearance (Table 8A and Table 8B). An untreated growth control (40% blood, 0 ug/ml conjugate) was included in all assays as a growth comparator.
(§4) MBC was defined as the minimum compound concentration required for complete bacterial clearance (Table 18).
(§5) In most cases, 2-4 fold improvements in antibacterial activity for the conjugates are observed in the presence of complement active human blood.

The test system of the next test is P. aeruginosa PAO1. It counts as cell-based. How it is done:
as §3, §4, §5

A further test concerns E. coli ATCC 25922. Format: cell-based. Here is the method: as §3, §4, §5
In another test the test system is Ec 2469. Format: cell-based, Escherichia coli. How it is done:
as §1

The subject of another test is Ec 25922. It counts as cell-based, Escherichia coli. How it is done: as §1
The next test has as its system Pa LES431. Format: cell-based, Pseudomonas aeruginosa. How it is done:
as §1

The next test concerns Pa PAO1. It counts as cell-based, Pseudomonas aeruginosa. Particulars: for MIC: PAO1. How it is done: as §1
For another test, the system named is Pa 27853. Format: cell-based, Pseudomonas aeruginosa. Here is the method: as §1
A further test relates to Sa RN. Format: cell-based.
A further test deals with Ab 19606 (COLhet^R). It counts as cell-based, Acinetobacter baumannii. Particulars: media CA-MHB. Here is the method: as §2
For a further test, the system named is LPS from E. coli O111:B4. As to the kind of experiment: LPS binding/neutralization by Limulus Amebocyte Lysate (LAL) assay. It counts as biochemical. Particulars: LPS 1-10,000 ng/mL, test article 0.25-10 μM; sum of AUCs relative to maximal AUC (Table 15). Here is the method:
The LAL assay (Charles River) was used to determine the binding affinity of test articles to LPS.
For the assay, 25 μL purified LPS from E. coli O111:[…] (Sigma) at doses ranging from 1-10,000 ng/mL were incubated with 25 μL of test article at concentrations ranging from […]. After 5 min incubation at 37° C., 50 μL of LAL reagent, which reacts with lipid A portion from LPS, was added to corresponding wells. After 15 min, absorbance at 405 nm was read on EnSpire plate reader (Perkin Elmer). The % LPS neutralization is calculated relative to a PBS control (background) and LPS control at each concentration (positive control).
LPS neutralization=(1−(absorbance test article−PBS with LAL reagent)/(absorbance no test article−PBS with LAL reagent))×100
To obtain a single value of LPS neutralization for each test article, the area under the curve (AUC) for dose-response of test articles from […] for each LPS concentration was calculated using Prism 7 software. The % LPS neutralization is the sum of the AUCs for each LPS concentration determined relative to the maximal AUC achievable×100.
For the assay, 25 μL purified LPS from E. coli O111:B4 (Sigma) at doses ranging from 1-10,000 ng/mL were incubated with 25 μL of test article at concentrations ranging from 0.25-10 μM. After 5 min incubation at 37° C., 50 μL of LAL reagent, which reacts with lipid A portion from LPS, was added to corresponding wells. After 15 min, absorbance at 405 nm was read on EnSpire plate reader (Perkin Elmer). The % LPS neutralization is calculated relative to a PBS control (background) and LPS control at each concentration (positive control).

For `C#CCOCCOCCOCCOCCC(=O)N[C@@H](CCN)C(=O)N[C@H](C(=O)NNC(=O)N[C@H]1CCNC(=O)[C@H]([C@@H](C)O)NC(=O)[C@H](CCN)NC(=O)[C@H](CCN)NC(=O)[C@H](CC(C)C)NC(=O)[C@@H](CC2CCCCC2)NC(=O)[C@H](CCN)NC1=O)[C@H](O)CCCCCC` [Int-115] ({Propargyl(OCH2CH2)4CO}-[Dab][X1][azaGly][Dab][Dab][dCha]L[Dab][Dab]T; lactam 4-C), the minimal inhibitory concentration (MIC) in the test on Kp 6951 (COL^R) was 128 µg/mL (≈ 95.5 µM); against Kp 43816, 2 µg/mL (≈ 1.49 µM); against Kp 10031, 2 µg/mL (≈ 1.49 µM); against Ab AB5075 it was 2 µg/mL (≈ 1.49 µM); against Ab 8990 (COL^R), above 128 µg/mL; against Ec AR0349 (mcr-1, COL^R) it was 16 µg/mL (≈ 11.9 µM). Besides, the minimal inhibitory concentration (MIC) in the test with Ec 25922 64X-1 (COL^R) amounted to 64 µg/mL (≈ 47.8 µM); in test [1], 64 µg/mL (≈ 47.8 µM); against Ec 2469 it was 2 µg/mL (≈ 1.49 µM); against Ec 25922, 2 µg/mL (≈ 1.49 µM); in the test on Pa LES431 it was 4 µg/mL (≈ 2.99 µM); in the test on Pa PAO1 it was 8 µg/mL (≈ 5.97 µM). Moreover, the MIC in the test on Pa 27853 is 4 µg/mL (≈ 2.99 µM); in the test on Sa RN it was above 128 µg/mL; against Ab 19606 (COLhet^R), 4 µg/mL (≈ 2.99 µM). Moreover, in the test on Ab AB5075 (pH 7.4), the “MIC in RPMI AB 5075” value stood at 1.11 µg/mL (≈ 0.829 µM). Also, in the test with A. baumannii AB5075, the “MBC in blood AB 5075” value worked out at 0.05 µg/mL (≈ 0.0373 µM). Moreover, in the test on P. aeruginosa PAO1, the “MBC in blood PA 01” value was above 0.2 µg/mL. The “MBC in blood EC 25922” value against E. coli ATCC 25922 came out at 0.05 µg/mL (≈ 0.0373 µM). The “MIC in RPMI EC 25922” value with Ec 25922 (pH 7.4) turned out to be 2.23 µg/mL (≈ 1.66 µM). Also, the “MIC in RPMI PA 01” value in the test with Pa PAO1 (PAO1, pH 7.4) turned out to be 8.91 µg/mL (≈ 6.65 µM).
Regarding `C#CCOCCOCCOCCOCCC(=O)N[C@@H](CCC(C)C)C(=O)N[C@@H](CCN)C(=O)N[C@H](C(=O)N(CCN)NC(=O)N[C@H]1CCNC(=O)[C@H]([C@@H](C)O)NC(=O)[C@H](CCN)NC(=O)[C@H](CCN)NC(=O)[C@H](CC(C)C)NC(=O)[C@@H](Cc2ccccc2)NC(=O)[C@H](CCN)NC1=O)[C@@H](C)O` [Int-126] ({Propargyl(OCH2CH2)4CO}-[hLeu][Dab]T[X7][Dab][Dab][dF]L[Dab][Dab]T; lactam 5-C), the minimum inhibitory concentration (MIC) with Kp 6951 (COL^R) (Kp 6951 (COL^R), media CA-MHB) is above 128 µg/mL; in the test with Kp 43816 it was 1 µg/mL (≈ 0.697 µM); against Kp 10031, 1 µg/mL (≈ 0.697 µM); with Ab AB5075, 2 µg/mL (≈ 1.39 µM); with Ab 8990 (COL^R) it was above 128 µg/mL; against Ec AR0349 (mcr-1, COL^R), 8 µg/mL (≈ 5.58 µM). In addition, the MIC in the test on Ec 25922 64X-1 (COL^R) amounted to 64 µg/mL (≈ 44.6 µM); in test [1] it was 64 µg/mL (≈ 44.6 µM); in the test with Ec 2469, 0.5 µg/mL (≈ 0.349 µM); against Ec 25922, 1 µg/mL (≈ 0.697 µM); with Pa LES431, 4 µg/mL (≈ 2.79 µM); in the test on Pa PAO1, 2 µg/mL (≈ 1.39 µM). The MIC was 2 µg/mL (≈ 1.39 µM) against Pa 27853, above 128 µg/mL against Sa RN and 4 µg/mL (≈ 2.79 µM) against Ab 19606 (COLhet^R). Besides, the “% LPS neutralization” value in the test on LPS from E. coli O111:B4 came out at 19.7%.
